Measurements published in PMC3004257, “Purine nucleoside phosphorylase from Schistosoma mansoni in complex with ribose-1-phosphate” (Journal of Synchrotron Radiation, 2010).

Columns and labels:
[1] = biological target: T1, SmPNP (Schistosoma mansoni purine nucleoside phosphorylase) (Schistosoma mansoni, UniProt Q9BMI9); assay: X-ray crystallography, crystal soaking, […] Å; assay type: binding; settings: 5 mM R1P soak up to 48 h, 20% PEG 1500, 15 mM sodium acetate pH 4.9 or 5.0, 20% glycerol; phosphate and ribose sites of all three subunits; acetate in base site
T1 construct: low-molecular-mass homotrimer
T1 sequence (Q9BMI9 1-287): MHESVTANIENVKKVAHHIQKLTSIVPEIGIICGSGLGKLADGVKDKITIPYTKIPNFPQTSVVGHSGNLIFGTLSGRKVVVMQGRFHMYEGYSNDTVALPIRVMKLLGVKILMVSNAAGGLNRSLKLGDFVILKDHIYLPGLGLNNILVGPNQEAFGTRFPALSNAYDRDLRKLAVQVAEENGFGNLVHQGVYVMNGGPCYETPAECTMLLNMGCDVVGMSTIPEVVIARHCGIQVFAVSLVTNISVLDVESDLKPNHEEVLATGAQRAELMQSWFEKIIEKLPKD

[2] = biological target: T1, SmPNP (Schistosoma mansoni purine nucleoside phosphorylase); assay: X-ray crystallography, crystal soaking; settings: soaking aimed at ternary complex with R1P; base binding site

| SMILES | X-ray crystallography, crystal soaking, 2.0 Å [1] | X-ray crystallography, crystal soaking [2] |
| --- | --- | --- |
| O=P(O)(O)O[C@H]1O[C@H](CO)[C@@H](O)[C@H]1O [ribose-1-phosphate] | we have been able to obtain the elusive binary complex of SmPNP with R1P | – |
| O=c1[nH]cnc2nc[nH]c12 [hypoxanthine] | – | by soaking were unsuccessful, SmPNP–hypoxanthine complexes being obtained instead |
